pKi: −log10 of the molar value.

Sequence of truncated PI3Kα (p110α/iSH2 p85α) (P42336 whole entry, the tested form may be a part): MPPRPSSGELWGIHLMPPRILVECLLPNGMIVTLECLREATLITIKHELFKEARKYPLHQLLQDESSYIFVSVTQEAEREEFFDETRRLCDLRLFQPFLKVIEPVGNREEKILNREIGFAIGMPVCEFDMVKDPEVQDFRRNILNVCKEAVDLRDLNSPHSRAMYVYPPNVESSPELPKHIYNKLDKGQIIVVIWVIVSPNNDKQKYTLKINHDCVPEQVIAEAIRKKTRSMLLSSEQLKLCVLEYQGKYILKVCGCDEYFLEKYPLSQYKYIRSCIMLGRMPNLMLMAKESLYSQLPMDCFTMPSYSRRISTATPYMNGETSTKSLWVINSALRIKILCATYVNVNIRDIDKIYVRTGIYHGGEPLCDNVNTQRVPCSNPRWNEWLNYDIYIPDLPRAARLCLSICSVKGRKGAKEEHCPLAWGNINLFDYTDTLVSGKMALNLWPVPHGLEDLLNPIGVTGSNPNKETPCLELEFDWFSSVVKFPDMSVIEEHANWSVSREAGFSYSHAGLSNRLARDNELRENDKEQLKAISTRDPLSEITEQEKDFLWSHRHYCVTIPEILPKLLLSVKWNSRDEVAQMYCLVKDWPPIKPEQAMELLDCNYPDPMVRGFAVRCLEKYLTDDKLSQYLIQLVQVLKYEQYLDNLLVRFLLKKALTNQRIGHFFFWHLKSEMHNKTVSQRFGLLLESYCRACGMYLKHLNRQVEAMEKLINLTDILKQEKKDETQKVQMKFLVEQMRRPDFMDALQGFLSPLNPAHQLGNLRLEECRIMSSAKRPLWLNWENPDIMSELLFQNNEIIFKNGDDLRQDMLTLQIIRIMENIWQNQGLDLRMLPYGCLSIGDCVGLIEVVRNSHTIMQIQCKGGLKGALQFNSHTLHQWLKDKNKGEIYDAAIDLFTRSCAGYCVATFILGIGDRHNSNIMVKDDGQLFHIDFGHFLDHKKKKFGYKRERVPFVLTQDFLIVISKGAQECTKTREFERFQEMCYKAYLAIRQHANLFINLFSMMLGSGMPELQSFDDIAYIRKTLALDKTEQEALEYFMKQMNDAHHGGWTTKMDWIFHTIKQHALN

The target of this assay is truncated PI3Kα (p110α/iSH2 p85α) (Homo sapiens (Human), UniProt P42336). Nature of the assay: PI3KA_Act fluorescence polarization kinase assay (Ki). The assay is classed as biochemical. The note with it: 1 mM ATP. In short, it runs like this:
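p110α/iSH2 p85α (0.5 nM) was reacted with 30 μM sonicated PIP2 in 50 mM HEPES pH 7.4, 150 mM NaCl, 5 mM MgCl2, 1 mM DTT and 0.05% CHAPS for 30 min at room temperature, then stopped with EDTA. PIP3 was detected by fluorescence polarization (GST-Grp1 PH domain/TAMRA-PIP3), and Ki came from a Morrison tight-binding fit.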
On the technique in general: Fluorescence polarisation rises when a labelled molecule tumbles more slowly, as on binding a larger partner.
On to `Cn1ccnc1C(=O)N1CC[C@](C)(N2CCc3c(-c4cnc(N)nc4)nc(N4CCOCC4)nc32)C1` [Example 390, {(3S)-3-[4-(2-aminopyrimidin-5-yl)-2-(morpholin-4-yl)-5,6-dihydro-7H-pyrrolo[2,3-d]pyrimidin-7-yl]-3-methylpyrrolidin-1-yl}(1-methyl-1H-imidazol-2-yl)methanone], for which the “PI3KA_Act Ki” value was 0.084 nM. Same read-out and setting: the figure for `Cn1ccc(C(=O)N2CC[C@](C)(N3CCc4c(-c5cnc(N)nc5)nc(N5CCOCC5)nc43)C2)n1` [Example 391, {(3S)-3-[4-(2-aminopyrimidin-5-yl)-2-(morpholin-4-yl)-5,6-dihydro-7H-pyrrolo[2,3-d]pyrimidin-7-yl]-3-methylpyrrolidin-1-yl}(1-methyl-1H-pyrazol-3-yl)methanone] is 0.022 nM; for `CNC(=N)N1CC[C@](C)(N2CCc3c(-c4cnc(N)nc4)nc(N4CCOCC4)nc32)C1` [Example 392, (3S)-3-[4-(2-aminopyrimidin-5-yl)-2-(morpholin-4-yl)-5,6-dihydro-7H-pyrrolo[2,3-d]pyrimidin-7-yl]-N,3-dimethylpyrrolidine-1-carboximidamide] it is 0.101 nM. Still for that read-out and setting: the figure for `CCNC(=O)N1CC[C@@](C)(N2CCc3c(-c4cnc(N)nc4)nc(N4CCOCC4)nc32)C1` [Example 393, (3R)-3-[4-(2-aminopyrimidin-5-yl)-2-(morpholin-4-yl)-5,6-dihydro-7H-pyrrolo[2,3-d]pyrimidin-7-yl]-N-ethyl-3-methylpyrrolidine-1-carboxamide] is 0.085 nM. Same read-out and setting: the figure for `CC(C)NC(=O)N1CC[C@@](C)(N2CCc3c(-c4cnc(N)nc4)nc(N4CCOCC4)nc32)C1` [Example 394, (3R)-3-[4-(2-aminopyrimidin-5-yl)-2-(morpholin-4-yl)-5,6-dihydro-7H-pyrrolo[2,3-d]pyrimidin-7-yl]-3-methyl-N-(propan-2-yl)pyrrolidine-1-carboxamide] is 0.112 nM.

Turning to `CC(C)NC(=O)N1CC[C@](C)(N2CCc3c(-c4cnc(N)nc4)nc(N4CCOCC4)nc32)C1` [Example 395, (3S)-3-[4-(2-aminopyrimidin-5-yl)-2-(morpholin-4-yl)-5,6-dihydro-7H-pyrrolo[2,3-d]pyrimidin-7-yl]-3-methyl-N-(propan-2-yl)pyrrolidine-1-carboxamide], the “PI3KA_Act Ki” value amounted to 0.352 nM. On the same count and under the same terms, then `CC(C)(C)NC(=O)N1CC[C@@](C)(N2CCc3c(-c4cnc(N)nc4)nc(N4CCOCC4)nc32)C1` [Example 396, (3R)-3-[4-(2-aminopyrimidin-5-yl)-2-(morpholin-4-yl)-5,6-dihydro-7H-pyrrolo[2,3-d]pyrimidin-7-yl]-N-tert-butyl-3-methylpyrrolidine-1-carboxamide], with 0.121 nM; and `CC(C)(C)NC(=O)N1CC[C@](C)(N2CCc3c(-c4cnc(N)nc4)nc(N4CCOCC4)nc32)C1` [Example 397, (3S)-3-[4-(2-aminopyrimidin-5-yl)-2-(morpholin-4-yl)-5,6-dihydro-7H-pyrrolo[2,3-d]pyrimidin-7-yl]-N-tert-butyl-3-methylpyrrolidine-1-carboxamide], with 0.101 nM; and `C[C@@]1(N2CCc3c(-c4cnc(N)nc4)nc(N4CCOCC4)nc32)CCN(CC(N)=O)C1` [Example 398, 2-{(3R)-3-[4-(2-aminopyrimidin-5-yl)-2-(morpholin-4-yl)-5,6-dihydro-7H-pyrrolo[2,3-d]pyrimidin-7-yl]-3-methylpyrrolidin-1-yl}acetamide], with 0.411 nM. Consider `C[C@]1(N2CCc3c(-c4cnc(N)nc4)nc(N4CCOCC4)nc32)CCN(CC(N)=O)C1` [Example 399, 2-{(3S)-3-[4-(2-aminopyrimidin-5-yl)-2-(morpholin-4-yl)-5,6-dihydro-7H-pyrrolo[2,3-d]pyrimidin-7-yl]-3-methylpyrrolidin-1-yl}acetamide], for which the “PI3KA_Act Ki” value was 0.074 nM. On to `CNC(=O)CN1CC[C@@](C)(N2CCc3c(-c4cnc(N)nc4)nc(N4CCOCC4)nc32)C1` [Example 400, 2-{(3R)-3-[4-(2-aminopyrimidin-5-yl)-2-(morpholin-4-yl)-5,6-dihydro-7H-pyrrolo[2,3-d]pyrimidin-7-yl]-3-methylpyrrolidin-1-yl}-N-methylacetamide], for which the “PI3KA_Act Ki” value was 0.781 nM. Consider `CNC(=O)CN1CC[C@](C)(N2CCc3c(-c4cnc(N)nc4)nc(N4CCOCC4)nc32)C1` [Example 401, 2-{(3S)-3-[4-(2-aminopyrimidin-5-yl)-2-(morpholin-4-yl)-5,6-dihydro-7H-pyrrolo[2,3-d]pyrimidin-7-yl]-3-methylpyrrolidin-1-yl}-N-methylacetamide], for which the “PI3KA_Act Ki” value was 0.109 nM. Regarding `CN(C)C(=O)CN1CC[C@@](C)(N2CCc3c(-c4cnc(N)nc4)nc(N4CCOCC4)nc32)C1` [Example 402, 2-{(3R)-3-[4-(2-aminopyrimidin-5-yl)-2-(morpholin-4-yl)-5,6-dihydro-7H-pyrrolo[2,3-d]pyrimidin-7-yl]-3-methylpyrrolidin-1-yl}-N,N-dimethylacetamide], the “PI3KA_Act Ki” value came to 0.872 nM.

For the compound `CN(C)C(=O)CN1CC[C@](C)(N2CCc3c(-c4cnc(N)nc4)nc(N4CCOCC4)nc32)C1` [Example 403, 2-{(3S)-3-[4-(2-aminopyrimidin-5-yl)-2-(morpholin-4-yl)-5,6-dihydro-7H-pyrrolo[2,3-d]pyrimidin-7-yl]-3-methylpyrrolidin-1-yl}-N,N-dimethylacetamide], the “PI3KA_Act Ki” value is 0.053 nM. Still for that read-out and setting: then `CCOC(=O)N1CC[C@@](C)(N2CCc3c(-c4cnc(N)nc4)nc(N4CCOCC4)nc32)C1` [Example 404, ethyl (3R)-3-[4-(2-aminopyrimidin-5-yl)-2-(morpholin-4-yl)-5,6-dihydro-7H-pyrrolo[2,3-d]pyrimidin-7-yl]-3-methylpyrrolidine-1-carboxylate], with 0.128 nM; and `CCOC(=O)N1CC[C@](C)(N2CCc3c(-c4cnc(N)nc4)nc(N4CCOCC4)nc32)C1` [Example 405, ethyl (3S)-3-[4-(2-aminopyrimidin-5-yl)-2-(morpholin-4-yl)-5,6-dihydro-7H-pyrrolo[2,3-d]pyrimidin-7-yl]-3-methylpyrrolidine-1-carboxylate], with less than 0.018 nM; and `CC(C)OC(=O)N1CC[C@](C)(N2CCc3c(-c4cnc(N)nc4)nc(N4CCOCC4)nc32)C1` [Example 406, propan-2-yl (3S)-3-[4-(2-aminopyrimidin-5-yl)-2-(morpholin-4-yl)-5,6-dihydro-7H-pyrrolo[2,3-d]pyrimidin-7-yl]-3-methylpyrrolidine-1-carboxylate], with less than 0.018 nM. On the same count and under the same terms, the figure for `CC(C)OC(=O)N1CC[C@@](C)(N2CCc3c(-c4cnc(N)nc4)nc(N4CCOCC4)nc32)C1` [Example 407, propan-2-yl (3R)-3-[4-(2-aminopyrimidin-5-yl)-2-(morpholin-4-yl)-5,6-dihydro-7H-pyrrolo[2,3-d]pyrimidin-7-yl]-3-methylpyrrolidine-1-carboxylate] is 0.235 nM. As to `CC(C)(C)OC(=O)N1C[C@@H](N2CCc3c(-c4cnc(N)nc4)nc(N4CCOCC4)nc32)[C@@H](F)C1` [Example 408, tert-butyl (3R,4S)-3-[4-(2-aminopyrimidin-5-yl)-2-(morpholin-4-yl)-5,6-dihydro-7H-pyrrolo[2,3-d]pyrimidin-7-yl]-4-fluoropyrrolidine-1-carboxylate], the negative logarithm of the Ki (pKi) (usually −log10 of the Ki, conventionally taken in molar units) was 8.96. Regarding `CC(C)(C)OC(=O)N1C[C@@H](F)[C@@H](N2CCc3c(-c4cnc(N)nc4)nc(N4CCOCC4)nc32)C1` [Example 409, tert-butyl (3S,4R)-3-[4-(2-aminopyrimidin-5-yl)-2-(morpholin-4-yl)-5,6-dihydro-7H-pyrrolo[2,3-d]pyrimidin-7-yl]-4-fluoropyrrolidine-1-carboxylate], the “PI3KA_Act Ki” value stood at 0.168 nM. As for `CC[C@@]1(N2CCc3c(-c4cnc(N)nc4)nc(N4CCOCC4)nc32)CCN(C(=O)OC(C)(C)C)C1` [Example 410, tert-butyl (3R)-3-[4-(2-aminopyrimidin-5-yl)-2-(morpholin-4-yl)-5,6-dihydro-7H-pyrrolo[2,3-d]pyrimidin-7-yl]-3-ethylpyrrolidine-1-carboxylate], the pKi was 9.58.

`CC[C@]1(N2CCc3c(-c4cnc(N)nc4)nc(N4CCOCC4)nc32)CCN(C(=O)OC(C)(C)C)C1` [Example 411, tert-butyl (3S)-3-[4-(2-aminopyrimidin-5-yl)-2-(morpholin-4-yl)-5,6-dihydro-7H-pyrrolo[2,3-d]pyrimidin-7-yl]-3-ethylpyrrolidine-1-carboxylate]: the “PI3KA_Act Ki” value was less than 0.018 nM. Regarding `CC(C)(N)COC(=O)N1CC[C@](C)(N2CCc3c(-c4cnc(N)nc4)nc(N4CCOCC4)nc32)C1.Cl` [Example 412, 2-amino-2-methylpropyl (3S)-3-[4-(2-aminopyrimidin-5-yl)-2-(morpholin-4-yl)-5,6-dihydro-7H-pyrrolo[2,3-d]pyrimidin-7-yl]-3-methylpyrrolidine-1-carboxylate hydrochloride], the “PI3KA_Act Ki” value is less than 0.018 nM. With `C[C@]1(N2CCc3c(-c4cnc(N)nc4)nc(N4CCOCC4)nc32)CCN(C(=O)OCC2CNC2)C1.Cl` [Example 413, azetidin-3-ylmethyl (3S)-3-[4-(2-aminopyrimidin-5-yl)-2-(morpholin-4-yl)-5,6-dihydro-7H-pyrrolo[2,3-d]pyrimidin-7-yl]-3-methylpyrrolidine-1-carboxylate hydrochloride], the “PI3KA_Act Ki” value is recorded as less than 0.018 nM. In the case of `CC1(OC(=O)N2CC[C@](C)(N3CCc4c(-c5cnc(N)nc5)nc(N5CCOCC5)nc43)C2)CNC1.Cl` [Example 414, 3-methylazetidin-3-yl (3S)-3-[4-(2-aminopyrimidin-5-yl)-2-(morpholin-4-yl)-5,6-dihydro-7H-pyrrolo[2,3-d]pyrimidin-7-yl]-3-methylpyrrolidine-1-carboxylate hydrochloride], the “PI3KA_Act Ki” value was 0.039 nM.

The values above are taken from patent US9260439B2, “Dihydropyrrolopyrimidine derivatives” (PFIZER INC., priority 2014, dated 2016).
